One data set concerns Vero. The experiment in a line: Cell viability, Vero (MERV screen). The class given is cell-based.
For another data set, the system named is MERV. Description: MERV (MOI 0.4) viral inhibition in Vero. In kind it is cell-based. To be noted: MERV MOI 0.4, Vero; for inhibition at 10 µM: read-out: Viral Inh. 10 uM; for inhibition at 50 µM: read-out: Viral Inh. 50 uM.
Data set [1] relates to VEEV. The experiment in a line: microbe, parasite or virus in culture. The class given is cell-based. The note with it: Venezuelan equine encephalitis virus, Astrocyte; for inhibition at 10 µM: read-out: Viral Inh. 10 uM; for inhibition at 50 µM: read-out: Viral Inh. 50 uM.
The nature of another data set: in vitro. The note with it: African green monkey.
A further data set concerns Norovirus GT1. The experiment in a line: Norovirus GT1 antiviral screening in HG23. In kind it is cell-based.
The test system of the next data set is SARS Coronavirus Urbani. The experiment in a line: microbe, parasite or virus in culture. The class given is cell-based. To be noted: Severe acute respiratory syndrome-related coronavirus, Vero 76.
Data set [2] is described as follows: Cytotoxicity (CC50) in HG23, norovirus screening. In kind it is cell-based. The note with it: human, HG23 cells; HG23, norovirus screen.
The nature of data set [3]: Rodent pharmacokinetic experiment in mice. The note with it: for concentration at 24 hr: read-out: 24 hr plasma levels. In kind it is in vivo, DBA-1J mice. The procedure:
DBA-1J mice (6-8 weeks old, female) were acclimated for ≥2 days after receipt. Mice were weighed the day before dosing to calculate dosing volumes. Mice were dosed by oral gavage with drug at 30 mg/kg, 100 mg/kg & 300 mg/kg. The mice were sampled at […] time points: 0.5, 1, 2, 3, 4, 8 and 24 hrs (3 mice per time point for test drug). The mice were euthanized and their organs were collected (see below). In order to collected blood, mice with euthanized by CO2 at the appropriate time point listed above. Blood was obtained by cardiac puncture (0.3 ml) at each time point. Following blood collection, the organs were removed from the mice (see below). The blood was processed by inverting Li-Heparin tube with blood gently 2 or 3 times to mix well. The tubes were then placed in a rack in ice water until able to centrifuge (≤1 hour). As soon as practical, the blood was centrifuged at ˜2000×g for 10 min in a refrigerated centrifuge to obtain plasma. Then, using a 200 μL pipette, the plasma was transferred to a labeled 1.5 ml Eppendorf tube in ice water. The plasma was then frozen in freezer or on dry ice. The samples were stored at −80° C. prior to analysis. Organs were collected from euthanized mice. The organs (lungs, liver, kidney, spleen and heart) were removed, placed in a tube, and immediately frozen in liquid nitrogen. The tubes were then transferred to dry ice. The samples were saved in cryogenic tissue vials. Samples were analyzed by LC-MS/MS using an ABSCIEX 5500 QTRAP LC-MS/MS system with a Hypercarb (PGC) column.

A short description of the next data set: in vivo. To be noted: male, SD, rat, po, 50 mg/kg.
The subject of the next data set is VEE virus. Description: organism not typed. To be noted: Vero. The class given is cell-based.
The nature of data set [4]: Rodent pharmacokinetic experiment in mice. The note with it: female, DBA-1J, mouse, plasma, after IV dosing, read-out: plasma T1/2 (converted). In kind it is in vivo, DBA-1J mice.
The test system of a further data set is CEM cells. The experiment in a line: Cytotoxicity profile, selectivity index in CEM cells. The class given is cell-based. To be noted: CEM cells (low of range).
A short description of data set [5]: 6 day q.d. intraperitoneal toxicology in mice. The class given is in vivo. From the text: Alternatively, drug delivery by aerosol (nasal spray) administration may immediately achieve therapeutic levels of drug in the nasal mucosa and the brain.
The subject of the next data set is CHIK virus. Description: Mouse model of Chikungunya infection. To be noted: CHIKV challenged mice, 25 or 35 mg/kg i.p.
The conditions of data set [6]: rat, in vivo, po, 50 mg/kg.
Data set [7] has as its system VEEV. The experiment in a line: microbe, parasite or virus in culture. The class given is cell-based. To be noted: Venezuelan equine encephalitis virus, HeLa; for inhibition at 10 µM: read-out: Viral Inh. 10 uM; for inhibition at 50 µM: read-out: Viral Inh. 50 uM.
Another data set has as its system HeLa. The note with it: human.

What is called EC50 is the concentration at which the effect is half-maximal. The Cmax is the peak of the concentration-time curve. The Tmax is the time from dosing to the highest level. The term bioavailability denotes the share of a dose that reaches the circulation, judged against a reference dose that is usually intravenous. For orientation: pEC50 means the negative decadic logarithm of the EC50, by convention in mol/L.

pEC50: −log10 of the molar value. In brackets after ≈: the same amount, converted by molar mass. Where two headings read alike, the source gives them in different places.

Regarding `CC(C)OC(=O)[C@H](C)NP(=O)(OC[C@H]1O[C@@H](n2ccc(NO)nc2=O)C(O)C1O)Oc1ccccc1` (some centres unmarked) [drawing 90], in the data set on Vero, the “Cell Viability 10 uM” value is 103% ± 14% (n = 4) and the “Cell Viability 50 uM” value is reported as 102% ± 36% (n = 4). For the same compound, in the data set with MERV, the inhibition at 10 µM was 29% and the inhibition at 50 µM is 85%.

For `O=c1nc(NO)ccn1[C@@H]1O[C@H](CO)C(O)C1O` (some centres unmarked) [drawing 83], in the data set with Astrocytes, the “Cell Viability 10 uM” value is listed as 98% ± 12% (n = 3) and the “Cell Viability 50 uM” value is 86% ± 5% (n = 3). Further, in the data set on VEEV [1], the inhibition at 10 µM was found to be 99% and the inhibition at 50 µM came to 100%.

On to `CC(C)OC(=O)[C@H](C)NP(=O)(OC[C@H]1O[C@@H](n2ccc(NO)nc2=O)C(O)C1O)Oc1ccccc1` (some centres unmarked) [drawing 85], for which, in the data set on Astrocytes, the “Cell Viability 10 uM” value is on record as 102% ± 16% (n = 3) and the “Cell Viability 50 uM” value is on record as 100% ± 17% (n = 3). In addition, in the data set on VEEV [1], the inhibition at 10 µM worked out at 49% and the inhibition at 50 µM came out at 96%.

`CCCCCCCNC(=O)ONc1ccn([C@@H]2O[C@H](CO)C(O)C2O)c(=O)n1` (some centres unmarked) [drawing 92]: in the data set on Vero, the “Cell Viability 10 uM” value was 118% ± 15% (n = 4) and the “Cell Viability 50 uM” value is listed as 91% ± 39% (n = 4). In addition, in the data set on MERV, the inhibition at 10 µM came out at 86% and the inhibition at 50 µM stood at 98%.

On to `CC1(O)C(O)[C@@H](CO)O[C@H]1n1ccc(NO)nc1=O` (some centres unmarked), for which the CC50 (in the data set “in vitro”; in data set [2]) was greater than 100 µg/mL throughout. The EC50 in the data set with Norovirus GT1 and with SARS Coronavirus Urbani was greater than 100 µg/mL throughout.

For the compound `O=c1nc(NO)ccn1[C@@H]1O[C@H](CO)C(O)C1O` (some centres unmarked) [drawing 88], in the data set with Vero, the “Cell Viability 10 uM” value was 75% ± 6% (n = 4) and the “Cell Viability 50 uM” value was 47% ± 3% (n = 4). Moreover, in the data set with MERV, the inhibition at 10 µM turned out to be 99% and the inhibition at 50 µM was found to be 100%.

Take `CONc1ccn([C@@H]2O[C@H](CO)C(O)C2O)c(=O)n1` (some centres unmarked): the CC50 in the data set “in vitro” was greater than 100 µg/mL. The same compound came in with an EC50 with SARS Coronavirus Urbani greater than 100 µg/mL.

For `O=c1nc(NO)ccn1[C@@H]1O[C@H](CO)[C@H](O)C1O` (some centres unmarked) [EIDD-01931, 1-(3,4-dihydroxy-5-(hydroxymethyl)tetrahydrofuran-2-yl)-4-(hydroxyamino)pyrimidin-2-one], the “Bioavailability (versus I.P. delivery)” value in data set [3] (PO 30 mg/kg) is listed as 65%; in [3] (PO 100 and 300 mg/kg) it was 39-46%. The Cmax in data set [3] (female, DBA-1J, mouse, plasma, PO 30 mg/kg) worked out at 3 ng/mL; in data set [3] (female, DBA-1J, mouse, plasma, PO 100 mg/kg), 7.7 ng/mL; in [3] (female, DBA-1J, mouse, plasma, PO 300 mg/kg), 11.7 ng/mL. Further, the half-life is 4.1 to 4.7 h in data set [3] (female, DBA-1J, mouse, plasma, after PO dosing, read-out: plasma T1/2) and 2.2 h in [4]. Moreover, the Tmax in data set [3] (female, DBA-1J, mouse, plasma, oral gavage, read-out: Tmax after oral dosing) was in the range of 0.25 to 0.5 h. Also, the concentration at 24 hr in data set [3] (female, DBA-1J, mouse, plasma, oral, 100 mg/kg dose) is roughly 100 nM; in data set [3] (female, DBA-1J, mouse, plasma, po, 300 mg/kg P.O.) it was roughly 400 nM. In the data set “in vivo”, this compound had a bioavailability of 28%. In the data set with VEE virus, this compound had a pEC50 of 6.00. In the data set on CEM cells, the selectivity index is reported as 8. The compound further showed a CC50 in the data set with CHIKV greater than 500 µM. Besides, the “NOEL (NO Effect Level)” value in data set [5] (6 day q.d. IP injections) came out at 33 mg/kg. The body weight effect result in data set [5] (highest dose tested (100 mg/kg) IP q.d., reversed on cessation of dosing) was “weight loss was observed”. Besides, the “CHIKV RNA copies by PCR (FIG. 8)” value with CHIK virus (after 7 days) is listed as “reduction of CHIKV RNA copies”. The “footpad swelling (FIG. 7)” value with CHIK virus (daily for 7 days) was “reduction in footpad swelling”. Also, the “tissue distribution (brain, lung, spleen, kidney and liver)” value in [6] is given as “well distributed into all tissues tested”.

Turning to `CCCCCCCOC(=O)ONc1ccn([C@@H]2O[C@H](CO)C(O)C2O)c(=O)n1` (some centres unmarked) [drawing 89], in the data set with Vero, the “Cell Viability 10 uM” value is 84% ± 8% (n = 4) and the “Cell Viability 50 uM” value was 58% ± 2% (n = 4). In the data set with MERV, the inhibition at 10 µM was 99% and the inhibition at 50 µM worked out at 99%.

As to `CCCCCCCCC(=O)ONc1ccn([C@@H]2O[C@H](CO)C(O)C2O)c(=O)n1` (some centres unmarked), the CC50 in the data set “in vitro” is 36 µg/mL (≈ 90.1 µM). In addition, a half-maximal response in the data set with SARS Coronavirus Urbani (EC50) required 0.19 µg/mL (≈ 0.476 µM).

On to `CCCCCCCOC(=O)ONc1ccn([C@@H]2O[C@H](CO)C(O)C2O)c(=O)n1` (some centres unmarked) [drawing 84], for which, in the data set with Astrocytes, the “Cell Viability 10 uM” value is 99% ± 9% (n = 3) and the “Cell Viability 50 uM” value is 94% ± 10% (n = 3). In the data set with VEEV [1], the inhibition at 10 µM was 94% and the inhibition at 50 µM worked out at 100%.

`CCCCCCCOC(=O)ONc1ccn([C@@H]2O[C@H](CO)C(O)C2O)c(=O)n1` (some centres unmarked) [drawing 70] gave a CC50 in the data set “in vitro” greater than 100 µg/mL. In the data set with SARS Coronavirus Urbani, this compound displayed an EC50 of 0.28 µg/mL (≈ 0.698 µM).

Turning to `CCCCCCCNC(=O)ONc1ccn([C@@H]2O[C@H](CO)C(O)C2O)c(=O)n1` (some centres unmarked) [drawing 87], in the data set on Astrocytes, the “Cell Viability 10 uM” value is listed as 98% ± 12% (n = 3) and the “Cell Viability 50 uM” value is on record as 85% ± 19% (n = 3). Further, in the data set with VEEV [1], the inhibition at 10 µM was 51% and the inhibition at 50 µM worked out at 37%.

Consider `O=c1nc(NO)ccn1[C@@H]1O[C@H](CO)C(O)C1O` (some centres unmarked) [drawing 68], for which the results for the CC50 (in the data set “in vitro”; in data set [2]) were 36 µg/mL (≈ 139 µM) and greater than 100 µg/mL, respectively. Besides, the EC50 with Norovirus GT1 was greater than 100 µg/mL; in the data set with SARS Coronavirus Urbani, less than 0.1 µg/mL.

Consider `O=c1nc(NO)c(F)cn1[C@@H]1O[C@H](CO)C(O)C1O` (some centres unmarked) [drawing 81], for which, in the data set on VEEV [7], the inhibition at 10 µM was found to be 61% and the inhibition at 50 µM stood at 98%. Also, in the data set with HeLa, the “Cell Viability 10 uM” value is reported as 55% ± 4% (n = 4) and the “Cell Viability 50 uM” value was 36% ± 2% (n = 4).

In the case of `CCCCCCCNC(=O)ONc1ccn([C@@H]2O[C@H](CO)C(O)C2O)c(=O)n1` (some centres unmarked) [drawing 82], in the data set on VEEV [7], the pEC50 was 5.22, the inhibition at 10 µM amounted to 93% and the inhibition at 50 µM turned out to be 100%. Moreover, in the data set on HeLa, the “Cell Viability 10 uM” value is 151% ± 16% (n = 4) and the “Cell Viability 50 uM” value is reported as 126% ± 7% (n = 4).

The record behind these values is patent US11628181B2, “N4-hydroxycytidine and derivatives and anti-viral uses related thereto” (Emory University, priority 2014, dated 2023).
